ChEMBL document CHEMBL1201862, “PubChem BioAssay data set” (2004)
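Tested at 5 concentrations; 48 h exposure; 96-well plates; endpoints linearly interpolated, else capped at highest concentration. GI50 marks 50% less growth.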 Calls of active or inactive are those of the source. Cut-off read from the data, not from the text of the source: active = GI50 up to about 1.1 µM and inactive = higher.

Assays:
Test in all cases: NCI anticancer screen, dose series, 48 h
NCI-H522 = tested on: NCI-H522
HCT-15 = tested on: HCT-15
OVCAR-3 = tested on: OVCAR-3
M19-MEL = tested on: M19-MEL
HOP-62 = tested on: HOP-62
DMS-273 = tested on: DMS-273
DLD-1 = tested on: DLD-1
SF-295 = tested on: SF-295
OVCAR-8 = tested on: OVCAR-8
RPMI-8226 = tested on: RPMI-8226
Malme-3M = tested on: Malme-3M
KM-20L2 = tested on: KM-20L2
M14 = tested on: M14
RXF 393 = tested on: RXF 393
A549 = tested on: A549

Compound: COc1ccc(/C(Cl)=C(\C=O)c2ccc(Cl)c(Cl)c2)cc1
- GI50 (NCI-H522): 2.51 µM (inactive)
- GI50 (HCT-15): 4.6 µM
- GI50 (OVCAR-3): 17.9 µM (inactive)
- GI50 (M19-MEL): 13.1 µM (inactive)
- GI50 (HOP-62): 13.3 µM (inactive)
- GI50 (DMS-273): 13.1 µM (inactive)
- GI50 (DLD-1): 10.7 µM (inactive)
- GI50 (SF-295): 9.12 µM (inactive)
- GI50 (OVCAR-8): 5.57 µM (inactive)
- GI50 (RPMI-8226): 2.56 µM (inactive)
- GI50 (Malme-3M): 16.1 µM (inactive)
- GI50 (KM-20L2): 11.7 µM (inactive)
- GI50 (M14): 13.7 µM (inactive)

Compound: Cc1cccc(C)c1NC(=O)CCc1nnc2s/c(=C\c3ccc(N(C)C)cc3)c(=O)n12
- GI50 (RXF 393): 69.2 µM (inactive)
- GI50 (NCI-H522): > 100 µM (inactive)
- GI50 (HCT-15): > 100 µM
- GI50 (OVCAR-3): 56.1 µM (inactive)
- GI50 (HOP-62): > 100 µM (inactive)
- GI50 (DMS-273): > 100 µM (inactive)
- GI50 (DLD-1): > 100 µM (inactive)
- GI50 (SF-295): 56.1 µM (inactive)
- GI50 (OVCAR-8): > 100 µM (inactive)
- GI50 (RPMI-8226): 66.2 µM (inactive)
- GI50 (Malme-3M): > 100 µM (inactive)
- GI50 (A549): > 100 µM (inactive)
- GI50 (KM-20L2): > 100 µM (inactive)
- GI50 (M14): > 100 µM (inactive)

Compound: C/C(=N/NC(=O)CC(=O)N(C(=O)c1ccccc1Cl)c1ccc(C)cc1)c1cc2ccccc2oc1=O
- GI50 (RXF 393): > 100 µM (inactive)
- GI50 (NCI-H522): > 100 µM (inactive)
- GI50 (HCT-15): > 100 µM
- GI50 (OVCAR-3): > 100 µM (inactive)
- GI50 (M19-MEL): > 100 µM (inactive)
- GI50 (HOP-62): > 100 µM (inactive)
- GI50 (DMS-273): > 100 µM (inactive)
- GI50 (DLD-1): > 100 µM (inactive)
- GI50 (SF-295): > 100 µM (inactive)
- GI50 (OVCAR-8): > 100 µM (inactive)
- GI50 (Malme-3M): > 100 µM (inactive)
- GI50 (A549): > 100 µM (inactive)
- GI50 (KM-20L2): > 100 µM (inactive)
- GI50 (M14): 65.3 µM (inactive)

Compound: O=C(Nc1ccc(/N=N/c2ccccc2)cc1)Sc1ccccc1C(=O)O
- GI50 (RXF 393): 71.3 µM (inactive)
- GI50 (NCI-H522): > 100 µM (inactive)
- GI50 (HCT-15): > 100 µM
- GI50 (OVCAR-3): > 100 µM (inactive)
- GI50 (HOP-62): > 100 µM (inactive)
- GI50 (DMS-273): > 100 µM (inactive)
- GI50 (SF-295): > 100 µM (inactive)
- GI50 (OVCAR-8): > 100 µM (inactive)
- GI50 (RPMI-8226): > 100 µM (inactive)
- GI50 (A549): > 100 µM (inactive)
- GI50 (KM-20L2): > 100 µM (inactive)
- GI50 (M14): > 100 µM (inactive)

Compound: CC(=O)NC1CC2Oc3ccc(C)cc3C(C)(O2)C1O (configuration not stated)
- GI50 (RXF 393): > 100 µM (inactive)
- GI50 (NCI-H522): > 100 µM (inactive)
- GI50 (HCT-15): > 100 µM
- GI50 (OVCAR-3): > 100 µM (inactive)
- GI50 (M19-MEL): > 100 µM (inactive)
- GI50 (HOP-62): > 100 µM (inactive)
- GI50 (DMS-273): > 100 µM (inactive)
- GI50 (DLD-1): > 100 µM (inactive)
- GI50 (SF-295): > 100 µM (inactive)
- GI50 (OVCAR-8): > 100 µM (inactive)
- GI50 (RPMI-8226): > 100 µM (inactive)
- GI50 (Malme-3M): > 100 µM (inactive)
- GI50 (A549): > 100 µM (inactive)
- GI50 (M14): > 100 µM (inactive)
